Measurements: patent publication US11053204B2, “Pyrimidinyloxy benzene derivatives as herbicides” (FMC Corporation, priority 2015, dated 2021)

Legend:
Type in all cases: in vivo
[1] = test system: pigweed (Amaranthus retroflexus); assay: Test A preemergence, visual injury rating
Procedure, shortened: (§1)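 Visual 0–100 rating (100 = complete control) taken about 10 d post-treatment relative to untreated checks. Preemergence: directed soil spray on sown loam/sand pots. Postemergence: seedlings 2–10 cm, 1–2 leaf. Non-phytotoxic solvent formulation with surfactant.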

[2] = test system: ragweed (common ragweed, Ambrosia elatior); assay: Test A preemergence, visual injury rating
Procedure, shortened: as §1

[3] = test system: giant foxtail (Setaria faberii); assay: Test A preemergence, visual injury rating
Procedure, shortened: as §1

[4] = test system: kochia (Kochia scoparia); assay: Test A preemergence, visual injury rating
Procedure, shortened: as §1

[5] = test system: Italian ryegrass (Lolium multiflorum); assay: Test A preemergence, visual injury rating
Procedure, shortened: as §1

[6] = test system: barnyardgrass (Echinochloa crus-galli); assay: Test A preemergence, visual injury rating
Procedure, shortened: as §1

[7] = test system: nutsedge, yellow (yellow nutsedge, Cyperus esculentus); assay: Test C postemergence, plant response rating; conditions: for Nutsedge, Yellow plant response rating: scale 0 to 100 (0 no effect, 100 complete control)
Procedure, shortened: (§2)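 Pre-emergence: seeds sown in loam soil–sand blend or silt loam and sprayed with test chemicals in a non-phytotoxic solvent mixture with surfactant. Post-emergence: plants 2 to 18 cm (1- to 4-leaf stage) in peat-based potting medium, same formulation. Greenhouse 13 to 15 d; visual rating 0 (no effect) to 100 (complete control) versus controls.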

[8] = test system: oilseed rape (Brassica napus); assay: Test C postemergence, plant response rating; conditions: for Oilseed Rape plant response rating: scale 0 to 100 (0 no effect, 100 complete control)
Procedure, shortened: as §2

[9] = test system: crabgrass, large (large crabgrass, Digitaria sanguinalis); assay: Test C postemergence, plant response rating; conditions: for Crabgrass, Large plant response rating: scale 0 to 100 (0 no effect, 100 complete control)
Procedure, shortened: as §2

[10] = test system: galium (catchweed bedstraw, Galium aparine); assay: Test C postemergence, plant response rating; conditions: for Galium plant response rating: scale 0 to 100 (0 no effect, 100 complete control)
Procedure, shortened: as §2

[11] = test system: blackgrass (Alopecurus myosuroides); assay: Test C postemergence, plant response rating; conditions: for Plant response rating, Blackgrass: scale 0 to 100; for Blackgrass plant response rating: scale 0 to 100 (0 no effect, 100 complete control)
Procedure, shortened: as §2

[12] = test system: morningglory (Ipomoea coccinea); assay: Test C postemergence, plant response rating; conditions: for Morningglory plant response rating: scale 0 to 100 (0 no effect, 100 complete control)
Procedure, shortened: as §2

[13] = test system: kochia (Kochia scoparia); assay: Test C postemergence, plant response rating; conditions: for Kochia plant response rating: scale 0 to 100 (0 no effect, 100 complete control)
Procedure, shortened: as §2

[14] = test system: wheat (winter wheat, Triticum aestivum); assay: Test C postemergence, plant response rating
Procedure, shortened: as §2

[15] = test system: corn (Zea mays); assay: Test C postemergence, plant response rating; conditions: for Corn plant response rating: scale 0 to 100 (0 no effect, 100 complete control)
Procedure, shortened: as §2

[16] = test system: barnyardgrass (Echinochloa crus-galli); assay: Test B flooded paddy test, plant response rating; conditions: 250 g ai/ha; Flood; scale of 0 to 100 where 0 is no effect and 100 is complete control; 13 to 15 days
Procedure, shortened: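 Under a constant 3 cm flood, test compounds went directly into the paddy water. Following 13 to 15 days of greenhouse growth, treated species and controls were compared by eye.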

[17] = 31 g ai/ha, 0 to 100 scale, 0 no effect, 100 complete control
[18] = 125 g ai/ha, 0 to 100 scale (0 no effect, 100 complete control)

FC(F)(F)CCCCc1c(Br)cccc1Oc1ncc(Cl)cn1 [Compound 138]
Plant response rating, Pigweed [1, 17]: 80 | Plant response rating, Pigweed [1, 18]: 100 | Plant response rating, Ragweed [2, 17]: 0 | Plant response rating, Ragweed [2, 18]: 0 | Plant response rating, Foxtail, Giant [3, 17]: 90 | Plant response rating, Foxtail, Giant [3, 18]: 100 | Plant response rating, Kochia [4, 17]: 50 | Plant response rating, Kochia [4, 18]: 100 | Plant response rating, Ryegrass, Italian [5, 17]: 10 | Plant response rating, Ryegrass, Italian [5, 18]: 100 | Plant response rating, Barnyardgrass [6, 17]: 70 | Plant response rating, Barnyardgrass [6, 18]: 100 | Plant response rating, Nutsedge, Yellow ([7]; 16 g ai/ha, scale of 0 to 100): 0 | Plant response rating, Nutsedge, Yellow ([7]; 31 g ai/ha, scale 0 to 100): 0 | Nutsedge, Yellow plant response rating ([7]; 62 g ai/ha): 10 | Nutsedge, Yellow plant response rating ([7]; 125 g ai/ha): 30 | Plant response rating, Oilseed Rape ([8]; 16 g ai/ha, scale of 0 to 100): 70 | Plant response rating, Oilseed Rape ([8]; 31 g ai/ha, scale 0 to 100): 85 | Oilseed Rape plant response rating ([8]; 62 g ai/ha): 95 | Oilseed Rape plant response rating ([8]; 125 g ai/ha): 100 | Plant response rating, Crabgrass, Large ([9]; 16 g ai/ha, scale of 0 to 100): 35 | Plant response rating, Crabgrass, Large ([9]; 31 g ai/ha, scale 0 to 100): 65 | Crabgrass, Large plant response rating ([9]; 62 g ai/ha): 85 | Crabgrass, Large plant response rating ([9]; 125 g ai/ha): 95 | Plant response rating, Galium ([10]; 16 g ai/ha, scale of 0 to 100): 65 | Plant response rating, Galium ([10]; 31 g ai/ha, scale 0 to 100): 80 | Galium plant response rating ([10]; 62 g ai/ha): 80 | Galium plant response rating ([10]; 125 g ai/ha): 85 | Plant response rating, Blackgrass ([11]; 16 g ai/ha): 5 | Plant response rating, Blackgrass ([11]; 31 g ai/ha): 35 | Blackgrass plant response rating ([11]; 62 g ai/ha): 10 | Blackgrass plant response rating ([11]; 125 g ai/ha): 65 | Plant response rating, Morningglory ([12]; 16 g ai/ha, scale of 0 to 100): 10 | Plant response rating, Morningglory ([12]; 31 g ai/ha, scale 0 to 100): 55 | Morningglory plant response rating ([12]; 62 g ai/ha): 65 | Morningglory plant response rating ([12]; 125 g ai/ha): 65 | Plant response rating, Kochia ([13]; 16 g ai/ha, scale of 0 to 100): 75 | Plant response rating, Kochia ([13]; 31 g ai/ha, scale 0 to 100): 85 | Kochia plant response rating ([13]; 62 g ai/ha): 95 | Kochia plant response rating ([13]; 125 g ai/ha): 98 | Plant response rating, Wheat ([14]; 16 g ai/ha, scale of 0 to 100): 5 | Plant response rating, Wheat ([14]; 31 g ai/ha, scale 0 to 100): 5 | Wheat plant response rating ([14]; 125 g ai/ha, scale 0 to 100 (0 no effect, 100 complete control)): 35 | Plant response rating, Corn ([15]; 16 g ai/ha, scale of 0 to 100): 15 | Plant response rating, Corn ([15]; 31 g ai/ha, scale 0 to 100): 20 | Corn plant response rating ([15]; 62 g ai/ha): 25 | Corn plant response rating ([15]; 125 g ai/ha): 30 | Plant response rating, Barnyardgrass [16]: 50
